System: chemically induced mammary tumours
Assay: activity against chemically induced (oral administration of dimethylbenzanthracene) mammary tumours in rats
Assay type: in vivo
Settings: for Increase or decrease in the average number of tumours per rat: control group +242; for Increase or decrease in the average tumour volume per rat in mm^3: control group +714
Source text: The biological activity of the compounds in accordance with the invention can be determined e.g. using the test procedures described in German Offenlegungsschrift 3 715 955.

C/C(=C\c1ccc(OCCN2CCOCC2)cc1)c1ccc2c(c1)C(C)(C)CCC2(C)C [4-[2-[p-[(E)-2-(5,6,7,8-tetrahydro-5,5,8,8-tetramethyl-2-naphthyl)propenyl]phenoxy]ethyl]morpholine]
Rats with tumours (50 mg/kg/day p.o.): 100 % of controls
Increase or decrease in the average number of tumours per rat (50 mg/kg/day p.o.): +91
Increase or decrease in the average tumour volume per rat in mm^3 (50 mg/kg/day p.o.): +550 mm^3
Rats with tumours (100 mg/kg/day p.o.): 50 % of controls
Increase or decrease in the average number of tumours per rat (100 mg/kg/day p.o.): -73
Increase or decrease in the average tumour volume per rat in mm^3 (100 mg/kg/day p.o.): -77 mm^3
Rats with tumours (200 mg/kg/day p.o.): 10 % of controls
Increase or decrease in the average number of tumours per rat (200 mg/kg/day p.o.): -96
Increase or decrease in the average tumour volume per rat in mm^3 (200 mg/kg/day p.o.): -99 mm^3

— patent US5250562A, “Stilbene derivatives” (Hoffmann-La Roche Inc., priority 1988, dated 1993)
